Molecules are shown by their SMILES. Several values for one entry are separate records, joined by “and”; a condition that tells them apart may be missing. Equal entries are not always repeated. Inconclusive results and toxic doses are left out.

For 19 compounds, T/C results are on record in PubChem BioAssay AID330 (DTP/NCI, 2004).

The experiment relates to P388 leukemia ip, CD2F1 mice, survival T/C. As to the kind of experiment: NCI In Vivo Anticancer Drug Screen. Data for tumor model P388 Leukemia (intraperitoneal) in CD2F1 (CDF1) mice. Conditions: endpoint: median survival time, higher = longer survival. In a few lines: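 Mice carrying the transplanted tumor received test compound or vehicle. Survival was recorded in each group, and the value is the treated-group measurement divided by that of the vehicle-treated control group.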

Where [1] appears, read: dose: 50.0 mg/kg/injection, schedule: Q01DX005 (ip), vehicle: saline with Tween-80.
[2] abbreviates: dose: 100.0 mg/kg/injection, schedule: Q01DX005 (ip), vehicle: saline with Tween-80.
The mark [3] stands for this setting: dose: 12.5 mg/kg/injection, schedule: Q01DX009 (ip), vehicle: saline.
Setting [4] is: dose: 25.0 mg/kg/injection, schedule: Q01DX009 (ip), vehicle: saline.
The mark [5] stands for this setting: dose: 50.0 mg/kg/injection, schedule: Q01DX009 (ip), vehicle: saline.
Where [6] appears, read: dose: 100.0 mg/kg/injection, schedule: Q01DX009 (ip), vehicle: saline with Tween-80.
Setting [7] is: dose: 200.0 mg/kg/injection, schedule: Q01DX005 (ip), vehicle: saline with Tween-80.
Where [8] appears, read: dose: 12.5 mg/kg/injection, schedule: Q01DX009 (ip), vehicle: water.
Setting [9] is: dose: 25.0 mg/kg/injection, schedule: Q01DX009 (ip), vehicle: water.
Where [10] appears, read: dose: 50.0 mg/kg/injection, schedule: Q01DX009 (ip), vehicle: Klucel (hydroxypropylcellulose) (HPC).
[11] abbreviates: dose: 100.0 mg/kg/injection, schedule: Q01DX009 (ip), vehicle: Klucel (hydroxypropylcellulose) (HPC).
Where [12] appears, read: dose: 200.0 mg/kg/injection, schedule: Q01DX009 (ip), vehicle: Klucel (hydroxypropylcellulose) (HPC).
[13] abbreviates: dose: 12.5 mg/kg/injection, schedule: Q01DX009 (ip), vehicle: Klucel (hydroxypropylcellulose) (HPC).
Where [14] appears, read: dose: 25.0 mg/kg/injection, schedule: Q01DX009 (ip), vehicle: Klucel (hydroxypropylcellulose) (HPC).

`N#Cc1ccc(NN=NCCCCl)cc1`: the T/C by setting is: (dose: 25.0 mg/kg/injection, schedule: Q01DX005 (ip), vehicle: distilled water + Tween-80) 95 % of control; (dose: 25.0 mg/kg/injection, schedule: Q01DX005 (ip), vehicle: saline with Tween-80) 100 % of control; (dose: 50.0 mg/kg/injection, schedule: Q01DX005 (ip), vehicle: distilled water + Tween-80) 93 % of control; under setting [1], 100 % of control; (dose: 100.0 mg/kg/injection, schedule: Q01DX005 (ip), vehicle: distilled water + Tween-80) 95 % of control; under setting [2], 121 % of control.
In the case of `C=C1C(O)C23CCC4C(C(=O)O)(C(=O)O)CC(OC5OC(CO)C(O)C(OC(=O)CCc6ccccc6)C5NC(=O)CC(C)C)CC4(C)C2CCC1(O)C3` (configuration not stated), the T/C (dose: 0.25 mg/kg/injection, schedule: Q01DX005 (ip), vehicle: Klucel (hydroxypropylcellulose) (HPC)) was 96 % of control; the T/C (dose: 0.5 mg/kg/injection, schedule: Q01DX005 (ip), vehicle: Klucel (hydroxypropylcellulose) (HPC)) was 98 % of control; the T/C (dose: 1.0 mg/kg/injection, schedule: Q01DX005 (ip), vehicle: Klucel (hydroxypropylcellulose) (HPC)) is 100 % of control; the T/C (dose: 3.12 mg/kg/injection, schedule: Q01DX005 (ip), vehicle: Klucel (hydroxypropylcellulose) (HPC)) is 101 % of control.
Regarding `O=C(C[n+]1ccccc1Br)c1cccc([N+](=O)[O-])c1`, the T/C by setting is: (dose: 6.25 mg/kg/injection, schedule: Q01DX009 (ip), vehicle: saline) 103 % of control; under setting [3], 107 % of control; under setting [4], 99 % of control; under setting [5], 103 % of control.
In the case of `CC(C)C(C(=O)CCN(C)C)c1ccc(Cl)cc1` (configuration not stated), the T/C was 116 % of control under setting [1] and 100 % of control under setting [2].
As for `Cc1cc(NC(=O)NCc2ccc(N3C(N)=NC(N)=NC3(C)C)cc2)ccc1S(=O)(=O)F`, the T/C is, setting by setting: (dose: 12.5 mg/kg/injection, schedule: Q01DX009 (ip), vehicle: saline with Tween-80) 119 % of control; (dose: 25.0 mg/kg/injection, schedule: Q04DX003 (ip), vehicle: saline with Tween-80) 105 % of control; (dose: 25.0 mg/kg/injection, schedule: Q04DX003 (ip), vehicle: saline) 109 % of control; (dose: 50.0 mg/kg/injection, schedule: Q04DX003 (ip), vehicle: saline with Tween-80) 119 % of control; under setting [6], 176 % of control; (dose: 100.0 mg/kg/injection, schedule: Q04DX003 (ip), vehicle: saline with Tween-80) 153 % of control. Besides, the T/C runs as follows: (dose: 200.0 mg/kg/injection, schedule: Q04DX003 (ip), vehicle: saline with Tween-80) 164 % of control; (dose: 200.0 mg/kg/injection, schedule: Q04DX003 (ip), vehicle: saline) 154 % of control; (dose: 400.0 mg/kg/injection, schedule: Q04DX003 (ip), vehicle: saline) 90 % of control.
As to `C=C1CCC2C(C)(CCC(OCCCCC)C2(C)C(=O)OC)C1CCc1ccoc1` (configuration not stated), the T/C is 100 % of control (dose: 8.25 mg/kg/injection, schedule: Q01DX005 (ip), vehicle: Klucel + Tween-80); 102 % of control (dose: 16.5 mg/kg/injection, schedule: Q01DX005 (ip), vehicle: Klucel + Tween-80); 100 % of control (dose: 33.0 mg/kg/injection, schedule: Q01DX005 (ip), vehicle: Klucel + Tween-80); 94 % of control (dose: 66.0 mg/kg/injection, schedule: Q01DX005 (ip), vehicle: Klucel + Tween-80).
Consider `O=CNCc1ccc(S(=O)(=O)F)cc1`, for which the T/C runs as follows: (dose: 12.5 mg/kg/injection, schedule: Q01DX009 (ip), vehicle: other) 93 % of control; (dose: 25.0 mg/kg/injection, schedule: Q01DX009 (ip), vehicle: other) 92 % of control; (dose: 50.0 mg/kg/injection, schedule: Q01DX009 (ip), vehicle: other) 99 % of control; (dose: 100.0 mg/kg/injection, schedule: Q01DX009 (ip), vehicle: other) 100 % of control.
Regarding `NCC1CCC(C(=O)O)CC1` (configuration not stated), the T/C is, setting by setting: under setting [1], 94 % of control; under setting [2], 92 % of control; under setting [6], 99 % of control; under setting [7], 100 % of control; (dose: 200.0 mg/kg/injection, schedule: Q01DX009 (ip), vehicle: saline with Tween-80) 101 % of control; (dose: 400.0 mg/kg/injection, schedule: Q01DX005 (ip), vehicle: saline with Tween-80) 103 % of control. Further, the T/C was 100 % of control (dose: 400.0 mg/kg/injection, schedule: Q01DX009 (ip), vehicle: saline with Tween-80) and 89 % of control (dose: 800.0 mg/kg/injection, schedule: Q01DX005 (ip), vehicle: saline with Tween-80).
On to `CC1=C(C)SC(=C2SC=CS2)S1`, for which the T/C reads like this: (dose: 100.0 mg/kg/injection, schedule: Q04DX002 (ip), vehicle: saline with Tween-80) 102 % of control; (dose: 200.0 mg/kg/injection, schedule: Q04DX002 (ip), vehicle: saline with Tween-80) 92 % of control; (dose: 400.0 mg/kg/injection, schedule: Q04DX002 (ip), vehicle: saline with Tween-80) 95 % of control.
As to `N#Cc1cccc(C(N)=O)c1C(N)=O`, the T/C runs as follows: under setting [1], 104 % of control; under setting [2], 98 % of control; under setting [7], 95 % of control.
For `NNS(=O)(=O)CCC(N)C(=O)O` (configuration not stated), the T/C reads like this: under setting [8], 100 % of control; under setting [9], 107 % of control; (dose: 50.0 mg/kg/injection, schedule: Q01DX009 (ip), vehicle: water) 107 % of control; (dose: 100.0 mg/kg/injection, schedule: Q01DX009 (ip), vehicle: water) 98 % of control.
As to `COc1ccc2oc3cc4c(c(O)c3c(=O)c2c1CC=C(C)C)C=CC(C)(C)O4`, the T/C (dose: 50.0 mg/kg/injection, schedule: Q01DX005 (ip), vehicle: Klucel (hydroxypropylcellulose) (HPC)) is 88 % of control; the T/C (dose: 100.0 mg/kg/injection, schedule: Q01DX005 (ip), vehicle: Klucel (hydroxypropylcellulose) (HPC)) is 86 % of control; the T/C (dose: 200.0 mg/kg/injection, schedule: Q01DX005 (ip), vehicle: Klucel (hydroxypropylcellulose) (HPC)) was 87 % of control.
Take `O=NNc1ccc(S(=O)(=O)c2ccc3ccccc3c2)cn1`: the T/C is 120 % of control (dose: 3.12 mg/kg/injection, schedule: Q01DX009 (ip), vehicle: water); 115 % of control (dose: 6.25 mg/kg/injection, schedule: Q01DX009 (ip), vehicle: water); 116 % of control under setting [8]; 109 % of control under setting [9].
As to `COc1ccccc1C1C(C#N)C(=O)NC(=O)C1C#N` (configuration not stated), the T/C was 113 % of control under setting [10], 105 % of control under setting [11] and 105 % of control under setting [12].
In the case of `FC(F)(F)c1nnc(-c2ccc3ccccc3c2)nn1`, the T/C by setting is: under setting [13], 104 % of control; under setting [14], 103 % of control; under setting [10], 103 % of control and 122 % of control; under setting [11], 105 % of control and 97 % of control; under setting [12], 100 % of control.
On to `COc1ccc2nc(N(C)C)cc(N(C)C)c2c1`, for which the T/C by setting is: under setting [13], 94 % of control; under setting [14], 94 % of control; under setting [10], 87 % of control.
In the case of `NC(=S)n1nc(-c2ccccc2)c(N=Nc2ccc(O)cc2)c1-c1ccccc1`, the T/C is, setting by setting: under setting [1], 100 % of control; under setting [2], 103 % of control; under setting [7], 98 % of control.
Turning to `COc1cc(NCCN)c2ncsc2c1`, the T/C reads like this: (dose: 50.0 mg/kg/injection, schedule: Q01DX005 (ip), vehicle: saline) 100 % of control; (dose: 100.0 mg/kg/injection, schedule: Q01DX005 (ip), vehicle: saline) 102 % of control.
Take `O=S(=O)(O)SCCN1CCCCC1`: the T/C under setting [3] was 110 % of control, the T/C under setting [4] is 100 % of control and the T/C under setting [5] is 100 % of control.
